The target of the experiment is Kappa-type opioid receptor (Homo sapiens, UniProt P41145).
Kappa-type opioid receptor, sequence (P41145 whole entry): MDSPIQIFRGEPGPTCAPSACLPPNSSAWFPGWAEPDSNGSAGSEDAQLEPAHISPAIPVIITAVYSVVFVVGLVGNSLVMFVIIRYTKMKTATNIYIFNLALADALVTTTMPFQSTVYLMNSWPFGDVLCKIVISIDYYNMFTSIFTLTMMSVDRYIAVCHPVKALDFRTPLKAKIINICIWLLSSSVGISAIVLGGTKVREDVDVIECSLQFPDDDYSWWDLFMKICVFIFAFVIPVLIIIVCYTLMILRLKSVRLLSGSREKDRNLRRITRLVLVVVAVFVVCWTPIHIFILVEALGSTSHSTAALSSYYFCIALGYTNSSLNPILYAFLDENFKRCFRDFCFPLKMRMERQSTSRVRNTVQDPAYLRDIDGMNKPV

Usually Ki stands for a dissociation constant, usually derived from enzyme kinetics or from competition with a known ligand. `CC[C@H](C)[C@H](NC(=O)[C@H](CCCNC(=N)N)NC(=O)[C@H](CCCNC(=N)N)NC(=O)[C@H](CC(C)C)NC(=O)[C@H](Cc1ccccc1)NC(=O)CNC(=O)CNC(=O)[C@@H](N)Cc1ccc(O)cc1)C(=O)N[C@@H](CCCNC(=N)N)C(=O)N1CCC[C@H]1C(=O)N[C@@H](CCCCN)C(=O)N[C@@H](CC(C)C)C(=O)N[C@@H](CCCCN)C(=O)O` [Dynorphin A (1-13)]: the affinity corresponds to a Ki of 0.343 µM.

The values are drawn from BindingDB's records for doi:10.1021/bi050490d (Case Western Reserve University, 2005).
